Here are results for two compounds from patent publication US20060280687A1, “Compounds for tissue imaging and methods of use thereof” (priority 2005, published 2006).

Series [1] has as its system human melanoma (A375M) xenograft. In words: In vivo fluorescence imaging of mice bearing a human melanoma (A375M) xenograft. The following applies: n=3. As to the method: Another study was conducted using mice (n=3) bearing a human melanoma (A375M) xenograft. When the tumor reached […] diameter, the mice received via tail vein injection 500 pmol of Cy5.5-2DG compound.
For orientation: Xenograft models place foreign cells or tissue in a host animal.

The test system of series [2] is MDA-MB-435 human breast carcinoma cells. In words: In vitro cell uptake by fluorescence microscopy, MDA-MB-435. Format: cell-based. The following applies: 1 hour. As to the method:
(§1) For fluorescence microscopic studies, 1 M cells were cultured on 35 mm MatTek glass bottom culture dishes (Cat #: P35G-0-14-C, Ashland, Mas.). After 24 hours, the cells were washed with phosphate-buffered saline (PBS) and then incubated at 37° C. or 4° C. in the presence of 100 nM Cy5.5-2DG for 1 hour. Afterwards, cells were washed in 1 mL ice-cold PBS. The fluorescence signal of the cells was recorded using an Axiovert 200M fluorescence microscope (Carl Zeiss MicroImaging, Inc., Thornwood, N.Y.) equipped with a Cy5.5 filter set (Exciter, HQ 650/20 nm; Emitter, HQ 675/35 nm). An AttoArc HBO 100 W microscopic illuminator was used as a light source for fluorescence excitation. Images were taken using a thermoelectrically cooled charge-coupled device (CCD) (Micromax, model RTE/CCD-576, Princeton Instruments Inc., Trenton, N.J.) and analyzed using WinView Software version 1.6.2 (Princeton Instruments Inc., Trenton, N.J.)
FIGS. 9A-9D illustrate the results of a similar study using MDA-MB-435 human breast carcinoma cells. Incubation at 37° C. […] (FIGS. 9B and 9D).

The subject of series [3] is human glioblastoma xenograft (U87MG). In words: In vivo fluorescence imaging of mice bearing a U87MG glioblastoma xenograft. As to the method:
All animal studies were carried out in compliance with federal and local institutional rules for the conduct of animal experimentation. Female athymic nude mice (nu/nu, 10-12 weeks old), obtained from Charles River Laboratories (Boston, Mas.), were inoculated subcutaneously in the right foreleg with 5×10^6 U87MG cultured glioblastoma cells suspended in 100 μL of PBS. Two to three weeks after inoculation, when the tumors reached 0.4-0.6 cm in diameter, the tumor bearing mice were subject to in vivo imaging studies.
In vivo fluorescence imaging was performed with a cooled charged-coupled device (CCD) camera (Xenogen IVIS™ 200 small animal imaging system, Xenogen, Alameda, Calif.). A Cy5.5 filter set was used for acquiring Cy5.5-2DG fluorescence in vivo. Identical illumination settings (lamp voltage, filters, f/stop, field of views, binning) were used for acquiring all images, and fluorescence emission was normalized to photons per second per centimeter squared per steradian (p/s/cm^2/sr). Images were acquired and analyzed using Living Image® D2.5 software (Xenogen).
Mice were injected via tail vein with 50 or 500 pmol Cy5.5-2DG and subjected to optical imaging at various time points post injection with a sampling of multiple angles while remaining sedated. […]
All the data are given as means ± SD of n independent measurements. Statistical analysis was performed using a Student's t-test. Statistical significance was assigned for P values <0.05. For determining tumor contrast, mean fluorescence intensities of the tumor area at the right shoulder of the animal (T) and of the corresponding area at the left shoulder (N) were calculated by means of the region of interest function of Living Image software(Xenogen) integrated with Igor (Wavemetrics, Lake Oswego, Oreg.). Dividing T by N yielded the contrast between tumor tissue and normal tissue.
In vivo studies were done to evaluate performance of the Cy5.5-2DG compound in tumor-bearing subjects. As described in Example 3, mice were inoculated in the right foreleg with 5×10^6 U87MG cultured glioblastoma cells. Two to three weeks after inoculation, when the tumors reached 0.4-0.6 cm in diameter, the tumor-bearing mice were used for in vivo imaging studies.
In one study, the mice received 500 pmol of Cy5.5-2DG compound, injected via tail vein. At various times post injection of the probe, an animal was sedated and then imaged using a small animal imaging system available under the trade designation IVIS® (Xenogen, Alameda, Calif.). In other studies described below with respect to FIGS. 22-23, imaging was also done using an imaging system from ART eXplore Optix (ART Inc./GE Healthcare) and compared to imaging using the imaging system IVIS®. FIGS. 10A-10M are images generated with the IVIS® system of sedated, live mice in the prone position as a function of time after administration of 500 pmol of Cy5.5-2DG. […] At 1 hour (FIG. 10B), 2 hours (FIG. 10C), 4 hours (FIG. 10D), and 5 hours (FIG. 10E), the probe progressively clears from the body and begins to localize in the tumor in the right foreleg. In fact, by two hours post injection, accumulation of the compound in the tumor is readily apparent in the image (FIG. 10C). […] The presence of the probe in the tumor is apparent in all the images, long after the probe has cleared from healthy tissue.

Series [4] concerns A375M human melanoma cells. In words: In vitro cell uptake by fluorescence microscopy, A375M. Format: cell-based. To be noted: 1 hour. As to the method:
as §1
The light images (FIGS. 7A and 7B) show cells in the optical field.

Series [5] deals with murine melanoma cells B16F10. In words: In vitro cell uptake by fluorescence microscopy, B16F10. The following applies: 1 hour. In kind it is cell-based. As to the method:
as §1
FIGS. 8A and 8C show a light image (FIG. 8A) and a fluorescent image (FIG. 8C) of murine melanoma cells B16F10 incubated in vitro with Cy5.5-2DG for one hour at 37° C. […] FIGS. 8B and 8D show a light image (FIG. 8B) and a fluorescent image (FIG. 8D) of the same type of cells incubated in vitro with Cy5.5-2DG for one hour at 4° C.

Series [6] relates to C6 rat glioma cells. In words: In vitro cell uptake by fluorescence microscopy, C6. Format: cell-based. To be noted: 1 hour. As to the method:
as §1
Additional in vitro studies were conducted with several other tumor cells lines, including C6 rat glioma cells. Following the procedure set forth in Example 2, the glioma cells were incubated for one hour at 37° C. or at 4° C., and light images and fluorescent images were taken. The light images are shown in FIGS. 6A and 6B and the fluorescent images in FIGS. 6C and 6D. Both light images show cells in the image field.

Series [7] relates to human glioblastoma cells (U87MG). In words: In vitro cell uptake by fluorescence microscopy, U87MG. In kind it is cell-based. To be noted: 100 nM, 1 hour. As to the method:
Human glioblastoma U87MG cells were cultured in Dulbecco's modified Eagle medium (DMEM, Invitrogen Life Technologies, Carlsbad, Calif.), high glucose plus 10% fetal bovine serum (FBS), and 1% penicillin-streptomycin. The cells were maintained in a humidified atmosphere of 5% CO2 at 37° C., with the medium changed every other day. A confluent monolayer was detached with trypsin and dissociated into a single cell suspension for further cell culture.
as §1, with “After 24 hours, the cells were washed with phosphate-buffered saline (PBS) and then incubated at 37° C. or 4° C. in the presence of 100 nM Cy5.5-2DG for 1 hour. Afterwards, cells were washed in 1 mL ice-cold PBS.” left out
Tumor uptake of the Cy5.5-2DG compound into human glioblastoma cells (U87MG) was determined by incubating the cells in vitro with the compound for one hour at either 37° C. or at 4° C., as described in Example 2. […]

The nature of series [8]: UV absorption and fluorescence spectra. Format: physicochemical. As to the method:
The crude product was then injected onto a semi-preparative HPLC column, where the flow rate was 3 mL/min, with the mobile phase starting from 5% solvent B (0.1%TFA in CH3CN) and 95% solvent A (0.1%TFA in water) (0-3 min) to 65% solvent B and 35% solvent A at 33 min, then going to 85% solvent B and 15% solvent A (33-36 min), maintaining this solvent composition for another three minutes (36-39 min), and returning to initial solvent composition by 42 min. Product elution was monitored at both 218 and 590 nm using a UV-Vis detector. The product peak was collected, lyophilized, and identified by MALDI-TOF-MS. The chemical purity of product was determined by analytical HPLC (same gradient as used for semi-preparative HPLC; flow rate: 1.0 ml/min). The product was re-dissolved in saline at a concentration of 1 mg/mL, and stored in the dark at −80° C. until use. The absorbance spectrum of Cy5.5-2DG was rerecorded on an Agilent 8453 UV-visible ChemStation (Agilent Technologies, Wilmington, DE), and fluorescence spectrum of Cy5.5-2DG was measured on a Fluoromax-3 fluorophotometer (JOBIN YVON/HORIBA, Edison, N.J.).

The nature of series [9]: Stability on in vitro incubation in mouse serum, HPLC analysis. In kind it is in vitro ADME. To be noted: 30 minutes incubation in mouse serum. As to the method: The stability of the Cy5.5-2DG compound was evaluated by incubating the compound in vitro in mouse serum and analyzing the serum as a function of time by high pressure liquid chromatography (HPLC). […] The main peak is observed at 15.2 minutes.

The mark [10] stands for this setting: 500 pmol i.v., lateral position.

Consider `CC[N+]1=C(C=CC=CC=C2N(CCCCCC(=O)NC3C(O)OC(CO)C(O)C3O)c3ccc4c(S(=O)(=O)[O-])cc(S(=O)(=O)O)cc4c3C2(C)C)C(C)(C)c2c1ccc1c(S(=O)(=O)[O-])cc(S(=O)(=O)O)cc21.[K+]` (stereo not shown) [Cy5.5-2DG], for which the “fluorescence of tumor tissue” value in series [1] (500 pmol i.v., 3, 24 and 48 hours post-injection) is given as “continued preferential fluorescence of tumor tissue”. Further, the “localization in the tumor” value in series [1] (500 pmol i.v., 2 hours post-injection) was “localization of the compound in the tumor is apparent”. Further, the results for the “uptake into the tumor cells” value in series [2] (4° C.) and in series [2] (37° C.) were “little of the compound” and “resulted in uptake”, respectively. The “ratio of fluorescence intensity of tumor tissue to healthy tissue” value in series [3] (50 pmol i.v., lateral position) was “about two”; in series [3] (50 pmol i.v., prone position, 30 minutes after injection), 1.5; in [3] (50 pmol i.v., prone position, by about 10 hours after injection), “more than two”; in [3] (500 pmol i.v., lateral position, by about five hours post injection), “two”; in series [3] (500 pmol i.v., lateral position, up to 100 hours post injection), “around two”. Besides, the “time after injection at which accumulation in the tumor is apparent” value in series [3] (50 pmol i.v., lateral position) was 1 h. In addition, the “time after injection at which preferential accumulation in the tumor is apparent” value in [3] (50 pmol i.v., prone position) turned out to be 30 min. In series [3] (50 pmol i.v., prone position), the “time to maximum fluorescence intensity” value is at most 30 min. In addition, the “latest time point with fluorescence of the tumor tissue observed” value in [3] (setting [10]) came out at 94 h. Besides, in series [3] (setting [10]), the “time by which compound has cleared from the tumor (tumor no longer visible)” value was at most 114 h. Further, the “time post injection at which localization in the tumor is apparent in the image” value in [3] (setting [10]) is reported as “two”. Also, the “time post injection at which accumulation in the tumor is apparent in the image” value in [3] (500 pmol i.v., prone position) was “two”. Further, the “ratio of fluorescence intensity of tumor tissue to healthy tissue (average radiance)” value is 1.5 in series [3] (500 pmol i.v., prone position, 120 hours post injection); 1.5 in series [3] (500 pmol i.v., prone position, about 4 hours post-injection); “two” in [3] (500 pmol i.v., prone position, about 18 hours post injection). In addition, the “ex vivo fluorescence of dissected tumor versus major tissues and organs” value in series [3] (500 pmol, 45 hours post injection) is recorded as “highest fluorescence intensity among the tissues imaged”. The “retention in the tumor” value in series [3] (after single administration) is recorded as “up to 100 hours”. Moreover, the “uptake into the cells” value in series [4] (4° C.) is “no apparent fluorescence”; in series [4] (37° C.), “took in the compound”; in series [5] (4° C.), “Little, if any”; in series [5] (37° C.), “Uptake of the compound into the cells is apparent”; in series [6] (4° C.), “took up little, if any, of the compound”; in [6] (37° C.), “distinct fluorescing cells visible”. In addition, the entries for the “uptake of the fluorescent compound by the cells” value in series [7] (4° C.) and in series [7] (37° C.) were “lack of fluorescing cells” and “considerably more uptake”, respectively. Besides, the UV absorption wavelength entry in series [8] is on record as “about 675 nm”. Also, the fluorescent emission wavelength result in series [8] is on record as “about 694 nm”. Moreover, the “stability in mouse serum” value in series [9] is given as “stable”.

Turning to `CCN1\C(=C/C=C/C=C/C2=[N+](CCCCCC(=O)O)c3ccc4c(S(=O)(=O)O)cc(S(=O)(=O)O)cc4c3C2(C)C)C(C)(C)c2c1ccc1c(S(=O)(=O)[O-])cc(S(=O)(=O)O)cc21` [Cy5.5® dye, reference compound], in [8], the UV absorption wavelength entry was “about 675 nm” and the fluorescent emission wavelength result was “about 694 nm”.
